This is an account of results in ChEMBL document CHEMBL4311943, “3-[(1S,2S,3R)-2,3-Difluoro-1-hydroxy-7-methylsulfonylindan-4-yl]oxy-5-fluorobenzonitrile (PT2977), a Hypoxia-Inducible Factor 2α (HIF-2α) Inhibitor for the Treatment of Clear Cell Renal Cell Carcinoma” (J Med Chem, 2019).

In one series the target is Cytochrome P450 2C19 (Homo sapiens, UniProt P33261). Briefly: Inhibition of CYP2C19 in human liver microsomes up to 50 uM using S-mephenytoin as substrate measured after 20 mins in presence of NADPH by LC-MS/MS analysis. Type of series: ADME. In general terms: Microsomes from liver hold many membrane-bound enzymes, among them those of drug oxidation.
Series [1] has as its target Parathyroid hormone/parathyroid hormone-related peptide receptor (Homo sapiens) (UniProt Q03431). Kind of series: Activity at human PTH1 receptor at 10 uM.
Series [2] deals with cGMP-dependent protein kinase 1 (Homo sapiens) (UniProt Q13976). Briefly: Activity at human PKG1beta at 10 uM.
A short description of series [3]: Half life in patient with advanced solid tumor at 20 mg, po administered once daily measured on day 15. It is filed as ADME, organism-based. The note with it: human, in vivo.
A short description of series [4]: Half life in Beagle dog at 1 mg/kg, iv by UPLC-MS analysis. Type of series: ADME, organism-based, Canis lupus familiaris. The following applies: in vivo.
For series [5], the target named is Prolactin-releasing peptide receptor (Homo sapiens) (UniProt P49683). Kind of series: Activity at human PRP receptor at 10 uM.
Series [6] deals with Leukotriene B4 receptor 1 (Homo sapiens) (UniProt Q15722). Briefly: Activity at human BLT1 receptor at 10 uM.
A short description of series [7]: Cmax in patient with advanced solid tumor at 160 mg, po administered once daily measured on day 15. Type of series: ADME, organism-based. Details: dose 160 mg, route oral. The note with it: human, in vivo.
Series [8] can be described thus: Half life in patient with advanced solid tumor at 120 mg, po administered once daily measured on day 15. It is filed as ADME, organism-based. The following applies: human, in vivo.
The nature of series [9]: Volume of distribution at steady state in Beagle dog at 1 mg/kg, iv by UPLC-MS analysis. It is filed as ADME, organism-based, Canis lupus familiaris. The following applies: in vivo, read-out: Vdss.
The species named for a further series is Homo sapiens. Briefly: Activity at human PKA at 10 uM.
Series [10] has as its target Sphingosine 1-phosphate receptor 3 (Homo sapiens) (UniProt Q99500). Kind of series: Activity at human S1P3 receptor at 10 uM.
Series [11] has as its target Serine/threonine-protein kinase STK11 (Homo sapiens) (UniProt Q15831). Kind of series: Activity at human LKB1 at 10 uM.
The target of series [12] is Substance-P receptor (Homo sapiens) (UniProt P25103). Briefly: Activity at human NK1 receptor at 10 uM.
The target in a further series is Cytochrome P450 2C9 (Homo sapiens, UniProt P11712). Briefly: Inhibition of CYP2C9 in human liver microsomes up to 50 uM using diclofenac as substrate measured after 10 mins in presence of NADPH by LC-MS/MS analysis. Type of series: ADME.
Series [13] addresses T1, UDP-glucuronosyltransferase 2B17 (Homo sapiens, UniProt O75795).
T1 sequence (O75795 whole entry): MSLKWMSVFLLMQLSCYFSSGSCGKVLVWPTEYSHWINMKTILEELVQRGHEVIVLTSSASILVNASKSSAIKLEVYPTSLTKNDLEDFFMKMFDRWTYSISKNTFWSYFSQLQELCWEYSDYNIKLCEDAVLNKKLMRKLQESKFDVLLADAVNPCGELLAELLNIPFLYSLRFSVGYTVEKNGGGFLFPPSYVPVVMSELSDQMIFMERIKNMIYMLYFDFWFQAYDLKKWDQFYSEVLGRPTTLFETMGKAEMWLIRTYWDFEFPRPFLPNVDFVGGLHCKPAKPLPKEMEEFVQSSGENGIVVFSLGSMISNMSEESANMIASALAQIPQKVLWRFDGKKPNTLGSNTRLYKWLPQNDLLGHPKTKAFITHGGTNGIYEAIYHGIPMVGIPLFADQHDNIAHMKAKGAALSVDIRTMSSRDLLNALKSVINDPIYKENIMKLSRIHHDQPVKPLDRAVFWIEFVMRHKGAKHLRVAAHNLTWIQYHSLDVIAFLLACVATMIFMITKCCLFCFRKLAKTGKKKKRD
Briefly: Substrate activity at recombinant human UGT2B17 expressed in baculovirus infected insect cell membranes assessed as enzyme-mediated glucuronidation by measuring Vmax per mg protein at 50 uM preincubated for 5 mins followed by UDPGA addition and measured after 60 mins by LC-MS/MS analysis. Type of series: ADME. The following applies: 1 h.

For series [14], the target named is Lysophosphatidic acid receptor 3 (Homo sapiens) (UniProt Q9UBY5). Briefly: Activity at human LPA3 receptor at 10 uM.
Series [15] concerns the target Mitogen-activated protein kinase 1 (Homo sapiens) (UniProt P28482). Kind of series: Activity at human MAPK2 at 10 uM.
Series [16] deals with 5-hydroxytryptamine receptor 2B (Homo sapiens) (UniProt P41595). Kind of series: Activity at human 5-HT2B receptor at 10 uM.
Series [17] addresses D(1B) dopamine receptor (Homo sapiens) (UniProt P21918). Briefly: Activity at human D5 receptor at 10 uM.
Series [18] is described as follows: Toxicity in patient with advanced solid tumor assessed as anemia at 20 to 240 mg, po administered once daily. Type of series: organism-based. The note with it: human, in vivo.
Series [19] addresses 5-hydroxytryptamine receptor 2A (Homo sapiens) (UniProt P28223). Briefly: Activity at human 5-HT2A receptor at 10 uM.
Series [20] in a line: AUClast in patient with advanced solid tumor at 160 mg, po administered once daily measured on day 15. It is filed as ADME, organism-based. More on the design: dose 160 mg, time 0 - last, route oral. The note with it: human, in vivo.
The target in series [21] is Cyclin-dependent kinase 2/cyclin E1 (Homo sapiens) (UniProt P24864+P24941). Briefly: Activity at human CDK2/cyclinE at 10 uM. Type of series: protein-complex assay.

Calls of active or inactive are those of the source. No cut-off for these calls is given here.

Chain of 5-hydroxytryptamine receptor 2A (Homo sapiens) (P28223 whole entry): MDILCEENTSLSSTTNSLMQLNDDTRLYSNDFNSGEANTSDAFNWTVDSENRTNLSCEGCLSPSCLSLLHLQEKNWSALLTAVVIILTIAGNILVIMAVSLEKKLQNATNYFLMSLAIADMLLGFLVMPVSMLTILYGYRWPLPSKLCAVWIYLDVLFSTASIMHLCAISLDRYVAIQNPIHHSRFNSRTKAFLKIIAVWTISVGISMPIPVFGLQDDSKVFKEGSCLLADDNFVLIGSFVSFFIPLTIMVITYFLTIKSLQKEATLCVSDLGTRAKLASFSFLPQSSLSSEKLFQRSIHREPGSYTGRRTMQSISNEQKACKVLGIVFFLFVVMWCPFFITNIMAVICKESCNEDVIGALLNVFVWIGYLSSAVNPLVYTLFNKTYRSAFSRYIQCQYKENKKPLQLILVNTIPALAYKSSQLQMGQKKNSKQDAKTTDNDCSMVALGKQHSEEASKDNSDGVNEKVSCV
Chain of cGMP-dependent protein kinase 1 (Homo sapiens) (Q13976 whole entry): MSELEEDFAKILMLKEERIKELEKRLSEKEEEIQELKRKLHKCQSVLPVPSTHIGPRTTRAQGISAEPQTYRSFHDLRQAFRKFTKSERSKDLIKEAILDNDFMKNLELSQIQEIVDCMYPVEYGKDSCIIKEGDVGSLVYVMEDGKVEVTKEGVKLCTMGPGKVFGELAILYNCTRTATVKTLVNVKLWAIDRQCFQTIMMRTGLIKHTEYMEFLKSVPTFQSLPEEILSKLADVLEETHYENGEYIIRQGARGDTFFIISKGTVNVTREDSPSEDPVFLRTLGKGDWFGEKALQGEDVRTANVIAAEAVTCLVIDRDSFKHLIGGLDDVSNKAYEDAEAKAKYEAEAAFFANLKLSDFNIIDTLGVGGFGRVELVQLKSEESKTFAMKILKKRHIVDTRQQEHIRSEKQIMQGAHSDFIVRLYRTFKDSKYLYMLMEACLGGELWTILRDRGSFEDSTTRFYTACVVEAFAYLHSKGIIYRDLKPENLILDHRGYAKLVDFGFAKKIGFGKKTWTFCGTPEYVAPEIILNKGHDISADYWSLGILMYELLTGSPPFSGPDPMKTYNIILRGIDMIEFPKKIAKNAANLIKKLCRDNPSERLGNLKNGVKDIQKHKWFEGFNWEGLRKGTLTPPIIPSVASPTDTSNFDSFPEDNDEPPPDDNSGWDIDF
Chain of Leukotriene B4 receptor 1 (Homo sapiens) (Q15722 whole entry): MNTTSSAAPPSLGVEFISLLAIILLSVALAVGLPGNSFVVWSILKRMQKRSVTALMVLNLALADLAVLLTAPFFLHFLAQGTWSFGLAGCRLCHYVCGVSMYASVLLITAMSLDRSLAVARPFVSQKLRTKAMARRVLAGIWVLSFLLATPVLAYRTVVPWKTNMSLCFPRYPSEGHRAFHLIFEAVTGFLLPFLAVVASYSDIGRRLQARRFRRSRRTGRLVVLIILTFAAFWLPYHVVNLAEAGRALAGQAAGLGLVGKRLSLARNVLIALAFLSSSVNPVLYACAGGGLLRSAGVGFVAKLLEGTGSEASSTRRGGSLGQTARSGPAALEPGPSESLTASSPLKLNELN
Chain of Serine/threonine-protein kinase STK11 (Homo sapiens) (Q15831 whole entry): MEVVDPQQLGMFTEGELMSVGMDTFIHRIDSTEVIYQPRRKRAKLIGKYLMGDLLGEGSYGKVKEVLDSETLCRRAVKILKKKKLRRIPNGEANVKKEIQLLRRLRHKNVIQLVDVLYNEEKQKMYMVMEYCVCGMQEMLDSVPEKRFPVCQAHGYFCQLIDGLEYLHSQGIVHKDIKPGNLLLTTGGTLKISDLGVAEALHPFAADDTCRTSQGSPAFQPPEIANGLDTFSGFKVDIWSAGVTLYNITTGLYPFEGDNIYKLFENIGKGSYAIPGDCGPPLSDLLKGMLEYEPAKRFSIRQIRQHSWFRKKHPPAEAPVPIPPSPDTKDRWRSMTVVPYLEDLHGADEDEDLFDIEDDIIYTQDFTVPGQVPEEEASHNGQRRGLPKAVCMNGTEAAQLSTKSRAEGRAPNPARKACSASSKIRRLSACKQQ
Chain of Sphingosine 1-phosphate receptor 3 (Homo sapiens) (Q99500 whole entry): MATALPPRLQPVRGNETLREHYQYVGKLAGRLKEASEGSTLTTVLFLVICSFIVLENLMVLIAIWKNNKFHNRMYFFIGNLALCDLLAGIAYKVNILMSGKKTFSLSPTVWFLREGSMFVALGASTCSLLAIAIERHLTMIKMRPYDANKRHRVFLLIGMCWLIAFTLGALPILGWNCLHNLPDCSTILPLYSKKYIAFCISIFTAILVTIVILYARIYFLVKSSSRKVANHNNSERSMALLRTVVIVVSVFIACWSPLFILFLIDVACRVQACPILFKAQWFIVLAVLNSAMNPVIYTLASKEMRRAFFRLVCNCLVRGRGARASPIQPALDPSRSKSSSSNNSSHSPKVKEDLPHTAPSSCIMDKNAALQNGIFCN
Chain of 5-hydroxytryptamine receptor 2B (Homo sapiens) (P41595 whole entry): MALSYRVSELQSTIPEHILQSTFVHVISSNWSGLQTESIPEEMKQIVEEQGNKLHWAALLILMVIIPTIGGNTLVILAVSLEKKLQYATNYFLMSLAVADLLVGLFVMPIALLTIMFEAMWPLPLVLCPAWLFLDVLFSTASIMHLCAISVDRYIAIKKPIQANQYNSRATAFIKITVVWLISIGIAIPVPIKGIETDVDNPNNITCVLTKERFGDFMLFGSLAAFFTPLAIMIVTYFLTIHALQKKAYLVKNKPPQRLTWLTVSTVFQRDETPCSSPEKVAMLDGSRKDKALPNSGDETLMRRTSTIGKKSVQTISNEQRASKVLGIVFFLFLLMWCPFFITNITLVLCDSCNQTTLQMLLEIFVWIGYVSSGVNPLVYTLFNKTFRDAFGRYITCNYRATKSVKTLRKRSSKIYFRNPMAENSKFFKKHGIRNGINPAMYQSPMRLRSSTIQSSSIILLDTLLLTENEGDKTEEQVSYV
Chain of Prolactin-releasing peptide receptor (Homo sapiens) (P49683 whole entry): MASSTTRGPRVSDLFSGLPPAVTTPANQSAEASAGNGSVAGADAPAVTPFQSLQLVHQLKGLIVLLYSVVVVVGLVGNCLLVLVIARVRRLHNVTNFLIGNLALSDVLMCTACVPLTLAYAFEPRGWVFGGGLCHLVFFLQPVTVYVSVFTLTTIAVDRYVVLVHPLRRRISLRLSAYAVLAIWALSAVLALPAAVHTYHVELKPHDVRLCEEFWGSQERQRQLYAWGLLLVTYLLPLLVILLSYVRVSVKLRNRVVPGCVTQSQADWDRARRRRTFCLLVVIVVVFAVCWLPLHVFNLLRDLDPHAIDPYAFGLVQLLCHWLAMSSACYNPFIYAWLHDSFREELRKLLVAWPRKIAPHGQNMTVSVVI
Chain of Mitogen-activated protein kinase 1 (Homo sapiens) (P28482 whole entry): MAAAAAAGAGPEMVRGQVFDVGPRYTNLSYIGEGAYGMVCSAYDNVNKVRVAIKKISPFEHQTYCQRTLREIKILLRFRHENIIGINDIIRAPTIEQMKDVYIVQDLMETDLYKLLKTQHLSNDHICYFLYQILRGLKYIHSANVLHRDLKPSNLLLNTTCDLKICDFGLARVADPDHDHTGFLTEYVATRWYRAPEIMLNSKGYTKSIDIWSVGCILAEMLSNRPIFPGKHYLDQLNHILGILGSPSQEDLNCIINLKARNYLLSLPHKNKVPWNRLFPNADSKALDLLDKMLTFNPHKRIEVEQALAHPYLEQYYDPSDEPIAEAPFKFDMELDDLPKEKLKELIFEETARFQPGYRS
Chain of Cytochrome P450 2C19 (P33261 whole entry): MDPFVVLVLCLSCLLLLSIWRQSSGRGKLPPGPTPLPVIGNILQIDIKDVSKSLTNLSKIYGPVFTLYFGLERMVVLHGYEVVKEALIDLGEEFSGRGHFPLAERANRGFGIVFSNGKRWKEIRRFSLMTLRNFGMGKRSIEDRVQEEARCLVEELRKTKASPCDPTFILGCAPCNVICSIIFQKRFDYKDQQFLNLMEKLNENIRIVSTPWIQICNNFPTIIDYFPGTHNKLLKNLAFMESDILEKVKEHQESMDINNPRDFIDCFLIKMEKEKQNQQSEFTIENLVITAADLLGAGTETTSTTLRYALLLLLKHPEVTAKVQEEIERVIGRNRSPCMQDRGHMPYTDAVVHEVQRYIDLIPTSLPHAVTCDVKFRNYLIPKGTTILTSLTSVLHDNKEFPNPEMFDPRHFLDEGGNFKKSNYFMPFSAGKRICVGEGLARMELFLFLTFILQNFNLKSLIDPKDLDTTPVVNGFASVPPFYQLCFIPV
Chain of Cytochrome P450 2C9 (P11712 whole entry): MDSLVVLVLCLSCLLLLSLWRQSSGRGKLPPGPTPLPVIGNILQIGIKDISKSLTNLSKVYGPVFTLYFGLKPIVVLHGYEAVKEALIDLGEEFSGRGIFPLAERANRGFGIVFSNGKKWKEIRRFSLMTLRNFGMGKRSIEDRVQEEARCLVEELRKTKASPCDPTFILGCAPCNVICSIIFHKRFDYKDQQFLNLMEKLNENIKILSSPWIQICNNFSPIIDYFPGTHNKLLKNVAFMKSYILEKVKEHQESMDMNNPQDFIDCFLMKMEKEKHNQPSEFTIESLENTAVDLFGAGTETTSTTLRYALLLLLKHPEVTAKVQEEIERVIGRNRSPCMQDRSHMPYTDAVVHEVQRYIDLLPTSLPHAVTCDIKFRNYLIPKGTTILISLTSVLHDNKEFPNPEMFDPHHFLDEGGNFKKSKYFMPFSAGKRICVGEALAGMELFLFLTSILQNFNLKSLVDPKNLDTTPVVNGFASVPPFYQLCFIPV
Chain of D(1B) dopamine receptor (Homo sapiens) (P21918 whole entry): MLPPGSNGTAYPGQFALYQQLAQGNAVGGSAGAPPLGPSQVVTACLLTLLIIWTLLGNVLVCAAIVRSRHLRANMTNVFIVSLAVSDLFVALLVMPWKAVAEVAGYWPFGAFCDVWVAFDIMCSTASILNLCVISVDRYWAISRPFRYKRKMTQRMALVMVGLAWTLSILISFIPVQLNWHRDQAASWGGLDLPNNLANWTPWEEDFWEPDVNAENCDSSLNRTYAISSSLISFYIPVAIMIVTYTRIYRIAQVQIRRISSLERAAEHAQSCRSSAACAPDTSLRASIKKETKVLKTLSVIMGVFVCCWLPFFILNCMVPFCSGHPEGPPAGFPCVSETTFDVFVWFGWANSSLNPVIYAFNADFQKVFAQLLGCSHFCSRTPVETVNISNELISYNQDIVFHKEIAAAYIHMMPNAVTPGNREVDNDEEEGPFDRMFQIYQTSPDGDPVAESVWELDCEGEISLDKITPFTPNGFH

Regarding `CS(=O)(=O)c1ccc(Oc2cc(F)cc(C#N)c2)c2c1[C@H](O)[C@H](F)[C@@H]2F` [BELZUTIFAN], the “inhibition (INH)” value on Cytochrome P450 2C19 and on Cytochrome P450 2C9 was “Not Active” each time. For the same molecule, the outcome (in series [1]; in [2]; in series [5]; in [6]; in the series filed under Homo sapiens; in series [10]) was inactive. Moreover, the result in series [11], in series [12], in [14], in [15], in series [16] and in series [17] was inactive. Further, the outcome in series [19] and in series [21] was inactive. For the same molecule, the results for the half-life in series [3], in series [4] and in series [8] were 12.5 h, 14 h and 20.9 h, respectively. The molecule also had a peak concentration (Cmax) in [7] of 2000 ng/mL. For the same molecule, the Vd in series [9] was determined as 1.3 L/kg. For the same molecule, the Vmax in series [13] is 4.7 pmol/min. Further, in series [18], the Activity entry is “Non-Toxic”. The molecule further had an AUC(0-t) in series [20] of 21000 ng·h/mL.

In general, half-life refers to how long it takes for the measured level to halve. A word on the Cmax: it is the peak of the concentration-time curve. In general, Vmax refers to the rate approached at saturating substrate. By AUC(0-t) is commonly meant the area under the concentration-time curve up to a stated or last time point. The low end stands for low exposure, the high end for high exposure.
